The values that follow come from ChEMBL document CHEMBL4229332, “Novel multi-target azinesulfonamides of cyclic amine derivatives as potential antipsychotics with pro-social and pro-cognitive effects” (Eur J Med Chem, 2018).

Activity calls are given as the source filed them. No cut-off for these calls is given here.

The test system of data set [1] is Rattus norvegicus. Description: Toxicity in Wistar rat assessed as increase in prolactin level at 3 mg/kg, po after 60 mins by ELISA. It counts as organism-based. The following applies: in vivo, 1 h.
Data set [2] in a line: Toxicity in ip dosed Sprague-Dawley rat assessed as sedation pretreated for 60 mins followed by PCP addition measured for 30 mins starting 15 min after rat reintroduction to auto-tracks. The class given is organism-based. As to conditions: in vivo.
A short description of data set [3]: Toxicity in ip dosed Sprague-Dawley rat assessed as induction of catalepsy measured every 30 mins up to 240 mins by bar test. It counts as organism-based. As to conditions: Sprague-Dawley, in vivo.
Data set [4] has as its system Rattus norvegicus. Nature of the data set: Effect on failure incidence during conditioned avoidance response test in Sprague-Dawley rat at 2 mg/kg, ip administered 60 mins prior to testing. The class given is ADME, organism-based. As to conditions: in vivo, 1 h.
Data set [5] is filed under the species Rattus norvegicus. Nature of the data set: animal or person. As to conditions: Sprague-Dawley, ip, read-out: MED.
Description: Antipsychotic activity in ip dosed Sprague-Dawley rat assessed as reduction in PCP-induced hyper-locomotion pretreated for 60 mins followed by PCP addition measured for 30 mins starting 15 min after rat reintroduction to auto-tracks
The species entered for data set [6] is Rattus norvegicus. Description: animal or person. The following applies: Sprague-Dawley, ip, read-out: MED. The source holds these as a separate data set.
Description: Reversal of PCP-induced cognitive impairment in ip dosed Sprague-Dawley rat assessed as reduction in time spent exploring novel object over familiar object pretreated for 60 mins followed by PCP addition by novel object recognition assay
The species named for data set [7] is Rattus norvegicus. Description: animal or person. As to conditions: Sprague-Dawley, ip, read-out: MED. This is another data set of the same source.
Description: Antipsychotic activity in ip dosed Sprague-Dawley rat assessed as suppression of avoidance behavior by avoiding foot shock administered 60 mins prior to test by conditioned avoidance response test
Data set [8] has as its system Rattus norvegicus. Description: Effect on failure incidence during conditioned avoidance response test in Sprague-Dawley rat at 6 mg/kg, ip administered 60 mins prior to testing. The class given is ADME, organism-based. The following applies: in vivo, 1 h.
Data set [9] relates to Rattus norvegicus. Nature of the data set: Reversal of ketamine-induced working social withdrawal in Sprague-Dawley rat at 1 mg/kg, ip pretreated for 60 mins followed by ketamine administration. It counts as functional, organism-based.

On to `Cc1cc2c(s1)Nc1ccccc1N=C2N1CCN(C)CC1` [OLANZAPINE], for which the Activity result is reported as “Toxic” in data set [1] and “Non-Toxic” in data set [4]. For the same molecule, the MTD at 0.5 h in data set [2] worked out at 1.25 mg/kg. Besides, the MTD in data set [3] was determined as 40 mg/kg. In addition, the minimal effective dose in data set [5] came to 1.88 mg/kg; in data set [6], 1.25 mg/kg; in data set [7], 1 mg/kg.
Turning to `CN1CCN(C2=Nc3cc(Cl)ccc3Nc3ccccc32)CC1` [CLOZAPINE], the MTD at 0.5 h in data set [2] turned out to be 3 mg/kg. Besides, the Activity result in data set [8] is “Non-Toxic”. Besides, the result in data set [9] was inactive. For the same molecule, the minimal effective dose in data set [5], in [6] and in [7] was 1 mg/kg each time.
